Converted amounts (≈) assume the structure as drawn.
Assays:
[1] = test system: panel of 125 important Gram positive strains and MDR clinical isolates of MRSA, VRE, and S. epidermidis; assay: MIC versus panel of 125 strains; format: cell-based; settings: panel of 125 strains incl. strains resistant to vancomycin, penicillin, erythromycin and ciprofloxacin
Protocol: Using a broth microdilution assay according to Clinical Laboratory Standards Institute (CSLI) guidelines, we tested 5-(2,5-bis(4-chloro-2-isopropylphenyl)thiophen-3-yl)-1H-tetrazole (“Test Article” in below table) to establish MICs against a broad range of MDR bacteria and noted substantive activity versus methicillin-resistant Staphylococcus aureus (MRSA), vancomycin-resistant Enterococcus (VRE) and Streptococcus spp. Antimicrobial susceptibility testing was performed by a microdilution broth assay according to CLSI guidelines. The inoculum was prepared from stationary-phase cultures diluted in water. Microtiter plate wells received aliquots of 100 μL of the compound diluted in Mueller-Hinton II cation adjusted media. The final concentration of compound typically ranged from 250 to 0.125 μg/ml in serial two-fold dilutions. In addition to the test compound, growth and sterility controls were included, along with DMSO vehicle control rows. The microtiter plates were inoculated with 5×10^5 bacteria and incubated overnight at 35° C. in a humidified atmosphere. […]

[2] = test system: mupirocin resistant S. aureus strains (MMX 1013, MMX 7779, MMX 7782, MMX 8845, MMX 9202); assay: MIC versus mupirocin resistant S. aureus panel; format: cell-based; settings: Staphylococcus aureus; mupirocin resistant S. aureus MMX 1013, MMX 7779, MMX 7782, MMX 8845, MMX 9202
Protocol: Using a broth microdilution assay according to Clinical Laboratory Standards Institute (CSLI) guidelines, we tested 5-(2,5-bis(4-chloro-2-isopropylphenyl)thiophen-3-yl)-1H-tetrazole (“Test Article” in below table) to establish MICs against a broad range of MDR bacteria and noted substantive activity versus methicillin-resistant Staphylococcus aureus (MRSA), vancomycin-resistant Enterococcus (VRE) and Streptococcus spp. Antimicrobial susceptibility testing was performed by a microdilution broth assay according to CLSI guidelines. The inoculum was prepared from stationary-phase cultures diluted in water. Microtiter plate wells received aliquots of 100 μL of the compound diluted in Mueller-Hinton II cation adjusted media. The final concentration of compound typically ranged from 250 to 0.125 μg/ml in serial two-fold dilutions. In addition to the test compound, growth and sterility controls were included, along with DMSO vehicle control rows. The microtiter plates were inoculated with 5×10^5 bacteria and incubated overnight at 35° C. in a humidified atmosphere.

[3] = test system: mupirocin resistant strains of E. faecalis; assay: activity against mupirocin resistant strains; format: cell-based
USA100 MRSA strain = assay: bactericidal activity; format: cell-based
USA300 MRSA strain = assay: bactericidal activity; format: cell-based
AcpS = AcpS enzyme activity assay; format: biochemical, S. aureus and E. coli; settings: [3H]-labeled holo-ACP formation
Protocol: The acpS gene was amplified from S. aureus and E. coli genomic DNA and inserted into a pET23b vector using standard recombinant DNA methodology such that the protein product would result in addition of a C-terminal 6×-His tag in frame with the AcpS open reading frames. […] Recombinant His-Tagged AcpS expression was induced by IPTG addition and overnight culture. Cell lysate was obtained by sequential aspiration through 16, 18 and 21 G needles in a buffer of 50 mM Tris-HCl (pH 8.5), 10 mM MgCl2, 2 mM DTT, 5% glycerol, and further adjusted to pH 8.1 with MES. […] In a typical AcpS enzyme activity assay, 57 μM [^3H]-labeled acyl-CoA, 2 μg apo-ACP, 10 mM MgCl2, 5 mM DTT, 50 mM Na phosphate (pH 7.0), and AcpS in a final volume of 10 μL were incubated at room temperature in a 1.5 mL microcentrifuge tube. At 5, 10, 15, and 20 minutes 2 μL of reaction were added to 750 μL 10% TCA on ice. Bovine serum albumin (BSA; 20 μl of a 25 mg/ml solution) was then added to facilitate precipitation of radiolabeled protein. The samples were centrifuged at 12 000 rcf for 5 min. […] 2 mL of scintillation fluid was added, and the amount of [^3H]-labeled holo-ACP formed was quantified by liquid scintillation counting. Each data point (remaining AcpS enzyme activity) was expressed as a percentage of vehicle control, with the median value of four time points presented.

[4] = dermal pharmacokinetics on full thickness human cadaver skin (Franz cells); format: in vitro ADME; settings: 2% w/w in GLAXAL BASE
Source text: Full thickness human skin was taken from the torso of a post-mortem human donor and stores at −80 degrees Celsius. On the day of the study, skin pieces were thawed for at least […] at room temperature in saline, then divided into individual pieces of approximately 2 cm length×2 cm width from which seven pieces of full thickness skin was selected. Approximately ⅔ of the width of the hypodermis layer was trimmed in order to mount the selected pieces into Franz cells. Receiver buffer was prepared (Krebs-Ringer bicarbonate buffer containing 10 mM HEPES, 15 mM sodium bicarbonate, and 1.2 mM calcium chloride; adjusted to pH 7.4 and fortified with 0.1% sodium azide and 1% bovine serum albumin). Each piece was equilibrated for 30 min with 12 mL of receiver buffer at 32 degrees Celsius by a water-jacket/stirring module running at 600 rpm. Transepithelial water loss was read for each piece after 30 mins using a vapometer. Exposed surface area of the piece was 1.77 square cm.
Approximately 300 ul of 5-(2,5-bis(4-chloro-2-isopropylphenyl)thiophen-3-yl)-1H-tetrazole formulated in 2% w/w GLAXAL BASE™ (Emollient Cream) was applied directly through syringe on top of each piece. Receiver samples were taken from the receiver compartment of each Franz cell at 3, 6, 12, 18, and 24 hours and replaced with an equal volume of fresh, warm buffer to maintain sink conditions. At the end of 24 hours, the bulk amount of formulation remaining on each piece of skin was wiped using cotton tips, stored together in a dry vial for analysis. Epidermis and dermis were then separated gently using forceps after a brief heat treatment at 60 degrees Celsius for no longer than 2 minutes. Each layer was then blotted dry, weighted and stored in separate glass vials. All samples were stored at −80 degrees Celsius until analysis by LC/MS-MS.
The cumulative concentrations of 5-(2,5-bis(4-chloro-2-isopropylphenyl)thiophen-3-yl)-1H-tetrazole that permeated at each time point were calculated by the sum of the measured concentration at that time point plus 1/12 of the measured concentrations at the previous time points (since 1 mL out of the 12 mL total receiver volume is withdrawn and replaced each time). The flux values over the course of the 24 hour permeation period were calculated from the slope of the linear portion of the curve. Flux was represented by the equation Flux=d[(Cr-T×Vr)/dt/A where Cr-T is the cumulative concentration at each time point (ng/mL); Vr is 12 mL; t is duration in hours; and A is the surface area of 1.77 square cm.

MRSA = assay: cellulitis model, intra-dermal MRSA; format: in vivo, SKH1 mice; settings: topical formulation for 7 days
Protocol: SKH1 mice were injected intra-dermally with MRSA (N=15). 5 mice received neutral control topical formulation for 7 days. 5 mice received a topical formulation containing mupirocin for 7 days. 5 mice received a topical formulation containing 5-(2,5-bis(4-chloro-2-isopropylphenyl)thiophen-3-yl)-1H-tetrazole for 7 days. Lesion area was measured each day. After 7 days, terminal colony forming units (CFUs) were measured to determine microbiological efficacy.

[5] = end of 24 hour permeation, LC-MS/MS

CC(C)c1cc(Cl)ccc1-c1cc(-c2nnn[nH]2)c(-c2ccc(Cl)cc2C(C)C)s1 [Test Article, 5-(2,5-bis(4-chloro-2-isopropylphenyl)thiophen-3-yl)-1H-tetrazole]
MIC [1]: 0.5 to 1 µg/mL (≈ 1.09 to 2.19 µM)
MIC [2]: 2 µg/mL (≈ 4.37 µM)
activity [3]: retained activity
bactericidal activity (USA100 MRSA strain): rapidly bactericidal
bactericidal activity (USA300 MRSA strain): rapidly bactericidal
AcpS inhibition (AcpS): inhibited
Flux from top through to bottom of skin ([4]; 24 hour permeation period): less than 0.141 ng/hr/cm^2
compound in the receiver samples ([4]; end of 24 hour permeation period, lower limit of detection 0.5 ng/mL): no detectable
level in dermis [4, 5]: 0.821±0.469 ng per mg tissue
level in epidermis [4, 5]: 163±58.0 ng per mg tissue
level in hypodermis [4, 5]: 1.86±1.04 ng per mg tissue
terminal CFU count (MRSA; FIG. 2A): significantly reduce
lesion area (MRSA; FIG. 2B): significantly reduce
